Data reported in publication PMC9701195, “Structural basis for lipid and copper regulation of the ABC transporter MsbA” (Nature Communications, 2022).
Like-named read-outs stand apart in the source and are kept apart here.

Key:
MsbA [1] = target: T1, MsbA (Escherichia coli, UniProt P60752); test: biochemical; set-up: native mass spectrometry lipid titration, sequential lipid binding model, mole fractions of apo and lipid-bound MsbA; conditions: first lipid; MsbA partially loaded with copper(II); read-out: KD1
T1 construct: full length, TEV-cleavable N-terminal His6 tag cut (intact native N-terminus MHND...), expressed in E. coli BL21-AI, delipidated, homodimer in C10E5
Procedure: Lipids were prepared as previously described, in which lipids dissolved in chloroform were dried under nitrogen flow placed under vacuum overnight followed by dissolving in water. The concentration of MsbA was determined using a DC protein assay (BioRad) with bovine serum albumin as the standard. MsbA was incubated with lipids at varying concentrations and mixed with 200 mM ammonium acetate supplemented with 2x CMC lauryldimethylamine oxide (LDAO) at 1:1 volume ratio. Samples were incubated in the nano electrospray ionization source chamber for a minute to reach equilibrium prior to data acquisition. These samples analyzed on Orbitrap Exactive Plus EMR mass spectrometer (Thermo Scientific) operating at identical settings as described above. The mass spectra for each titration event were obtained in triplicate. The mass spectra were deconvoluted using UniDec[55] and the resulting peak intensities for apo and lipid-bound protein were determined. The relative abundance for each species was determined by dividing the peak intensity by the total intensity to convert to mole fraction for each independent experiment. For MsbA (P) binding the N^th lipid (Ln), we applied the following sequential lipid binding model: PLn−1+L⇔KAPLn where: KAn=PLn/[PLn−1]L To better understand MsbA-lipid interactions, we determined equilibrium binding constants for MsbA binding to different lipids. For these studies, we selected 1,1′,2,2′-tetraoleoyl-cardiolipin (TOCDL, 72:4) or phosphatidic acid (PA), phosphatidylcholine (PC), phosphatidylethanolamine (PE), phosphatidylglycerol (PG), and phosphatidylserine (PS) containing the acyl chain composition, 1-palmitoyl-2-oleoyl (PO, 16:0-18:1). We also included 3-deoxy-D-manno-oct-2-ulosonic acid (Kdo)2-lipid A (KDL), an LPS precursor known to stimulate MsbA ATPase activity[22]–[24]. Except for PC, these lipids are found in E. coli[40]. MsbA partially and fully loaded with copper(II) was titrated with each lipid followed by recording their native mass spectra (Supplementary Figs. 3–6). The mole fractions of apo and lipid bound states of MsbA were extracted from the deconvoluted MS data and used to determine the equilibrium dissociation constant (KDN) for the Nth binding event (Supplementary Tables 4–5). […] The two tightest binding lipids for MsbA loaded with copper(II) were TOCDL (KD1 = 1.6 µM) and KDL (KD1 = 0.6 µM). POPG binding affinities were largely independent of the copper(II) bound state of MsbA. […] For MsbA with reduced copper(II) binding, additional 1 mM MgCl2 was added to all buffer and MsbA solution in the purification step using Ni-NTA beads. Copper(II) saturated MsbA was obtained by adding 20 uM copper (II) acetate then buffer exchanged using Bio-Spin column to remove excess copper(II). […]

MsbA [2] = target: T1, MsbA; test: biochemical; set-up: native mass spectrometry lipid titration of ADP-trapped open outward-facing MsbA, sequential lipid binding model; conditions: first lipid; MsbA trapped with ADP and VO4, open outward-facing; read-out: KD1
Procedure: Lipids were prepared as previously described, in which lipids dissolved in chloroform were dried under nitrogen flow placed under vacuum overnight followed by dissolving in water. The concentration of MsbA was determined using a DC protein assay (BioRad) with bovine serum albumin as the standard. MsbA was incubated with lipids at varying concentrations and mixed with 200 mM ammonium acetate supplemented with 2x CMC lauryldimethylamine oxide (LDAO) at 1:1 volume ratio. Samples were incubated in the nano electrospray ionization source chamber for a minute to reach equilibrium prior to data acquisition. These samples analyzed on Orbitrap Exactive Plus EMR mass spectrometer (Thermo Scientific) operating at identical settings as described above. The mass spectra for each titration event were obtained in triplicate. The mass spectra were deconvoluted using UniDec[55] and the resulting peak intensities for apo and lipid-bound protein were determined. The relative abundance for each species was determined by dividing the peak intensity by the total intensity to convert to mole fraction for each independent experiment. For MsbA (P) binding the N^th lipid (Ln), we applied the following sequential lipid binding model: PLn−1+L⇔KAPLn where: KAn=PLn/[PLn−1]L To determine the impact of MsbA conformation on lipid binding affinity, analogous experiments were performed using MsbA trapped in an open, OF conformation with adenosine diphosphate (ADP) and [compound left out] (VO4). […] For example, in the presence of 0.4 μM of KDL, [compound left out]-trapped MsbA binds up to two lipids whereas the non-trapped protein binds only one KDL (Fig. 3b–c). […] The binding of POPC and POPE are reminiscent of that for MsbA partially loaded with copper(II). […] For MsbA with reduced copper(II) binding, additional 1 mM MgCl2 was added to all buffer and MsbA solution in the purification step using Ni-NTA beads. Copper(II) saturated MsbA was obtained by adding 20 uM copper (II) acetate then buffer exchanged using Bio-Spin column to remove excess copper(II). MsbA trapped by [compound left out] was obtained by adding ATP and MgCl2 to MsbA to reach the final concentration of 10 mM for both then incubating at room temperature for 10 min. After incubation, [compound left out] (pH 10) was added to reach final concentration of […] followed by incubation at 37 °C for 10 min. MsbA samples was buffer exchanged using Bio-Spin column to 200 mM ammonium acetate supplemented with 2x CMC C10E5 for native MS studies. To prepare MsbA samples for Cryo-EM studies, MsbA and trapped MsbA were preloaded with copper(II) then purified by Superdex 200 Increase 10/300 GL size exclusion column equilibrated with 200 mM NaCl, 20 mM HEPES and 2x CMC C10E5 without glycerol. […]

MsbA [3] = target: T1, MsbA; test: cryoEM structure […] Å and native MS; type: binding; conditions: outward-facing, with KDL and copper(II), NBD site
[4] = target: the molecule itself; test: native MS; MsbA in 200 mM ammonium acetate with 2x CMC C10E5; Orbitrap Exactive Plus EMR; partially or fully copper(II)-loaded, also trapped with ADP and vanadate

T1 sequence (P60752 whole entry): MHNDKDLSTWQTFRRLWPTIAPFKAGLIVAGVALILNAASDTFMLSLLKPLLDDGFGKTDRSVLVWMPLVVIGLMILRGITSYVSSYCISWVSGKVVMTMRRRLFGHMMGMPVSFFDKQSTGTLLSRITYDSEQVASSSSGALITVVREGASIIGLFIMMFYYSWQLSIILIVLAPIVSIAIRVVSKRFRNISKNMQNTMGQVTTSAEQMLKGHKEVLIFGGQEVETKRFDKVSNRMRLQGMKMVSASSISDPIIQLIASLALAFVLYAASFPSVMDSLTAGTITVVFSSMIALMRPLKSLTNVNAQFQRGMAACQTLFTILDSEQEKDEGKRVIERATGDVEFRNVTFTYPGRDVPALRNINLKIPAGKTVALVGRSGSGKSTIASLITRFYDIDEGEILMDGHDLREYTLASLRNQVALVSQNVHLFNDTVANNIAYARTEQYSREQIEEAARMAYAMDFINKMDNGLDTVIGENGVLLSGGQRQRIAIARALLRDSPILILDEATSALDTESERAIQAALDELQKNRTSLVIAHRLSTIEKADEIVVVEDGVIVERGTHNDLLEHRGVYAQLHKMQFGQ

| Kd (MsbA [1]) | Kd (MsbA [2]) | Molecule | also measured |
| --- | --- | --- | --- |
| 20.4 ± 1.4 µM | 15.1 ± 0.5 µM | CCCCCCCC/C=C\CCCCCCCC(=O)O[C@H](COC(=O)CCCCCCCCCCCCCCC)COP(=O)([O-])OCC[N+](C)(C)C [POPC] |  |
| 14.7 ± 1.5 µM | 2.2 ± 0.01 µM | CCCCCCCC/C=C\CCCCCCCC(=O)O[C@H](COC(=O)CCCCCCCCCCCCCCC)COP(=O)(O)O [POPA] |  |
|  | 2.3 ± 0.3 µM | CCCCCCCC/C=C\CCCCCCCC(=O)O[C@H](COC(=O)CCCCCCCCCCCCCCC)COP(=O)(O)OC[C@H](N)C(=O)O [POPS] |  |
| 12.4 ± 0.7 µM |  | CCCCCCCC/C=C\CCCCCCCC(=O)O[C@H](COC(=O)CCCCCCCCCCCCCCC)COP(=O)(O)OCCN [POPE] |  |
| 4.9 ± 0.4 µM | 2.6 ± 0.1 µM | CCCCCCCC/C=C\CCCCCCCC(=O)O[C@H](COC(=O)CCCCCCCCCCCCCCC)COP(=O)(O)OCC(O)CO (some centres unmarked) [POPG] |  |

The next lines start with the molecule.

| Molecule | Kd (MsbA [1]) | Kd (MsbA [2]) | also measured |
| --- | --- | --- | --- |
| Nc1ncnc2c1ncn2[C@@H]1O[C@H](COP(=O)(O)OP(=O)(O)O)[C@@H](O)[C@H]1O [ADP] |  |  | cryoEM structure 3.6 Å and native MS (MsbA [3]; vanadate-trapped): there is clear density for ADP·VO4 in the NBDs |
| [O]=[V]([OH])([OH])[OH] [vanadate] |  |  | cryoEM structure 3.6 Å and native MS (MsbA [3]; ADP-vanadate-trapped): there is clear density for ADP·VO4 in the NBDs |
| MsbA (ATP-binding cassette transporter MsbA, Escherichia coli) (natural protein, MsbA, Escherichia coli, UniProt P60752; msbA gene amplified from E. coli genomic DNA into pCDF-1b (pCDF-MsbA), N-terminal TEV-cleavable His6; Homodimer; co-purifies with copper(II), one site per subunit at the N-terminus (Met-His-Asn-Asp); For cryo-EM it was loaded with copper(II), apo or trapped with ADP-vanadate, with KDL; also called wild-type MsbA; the transporter; source: E. coli (DE3) …) HNDKDLSTWQTFRRLWPTIAPFKAGLIVAGVALILNAASDTFMLSLLKPLLDDGFGKTDRSVLVWMPLVVIGLMILRGITSYVSSYCISWVSGKVVMTMRRRLFGHMMGMPVSFFDKQSTGTLLSRITYDSEQVASSSSGALITVVREGASIIGLFIMMFYYSWQLSIILIVLAPIVSIAIRVVSKRFRNISKNMQNTMGQVTTSAEQMLKGHKEVLIFGGQEVETKRFDKVSNRMRLQGMKMVSASSISDPIIQLIASLALAFVLYAASFPSVMDSLTAGTITVVFSSMIALMRPLKSLTNVNAQFQRGMAACQTLFTILDSEQEKDEGKRVIERATGDVEFRNVTFTYPGRDVPALRNINLKIPAGKTVALVGRSGSGKSTIASLITRFYDIDEGEILMDGHDLREYTLASLRNQVALVSQNVHLFNDTVANNIAYARTEQYSREQIEEAARMAYAMDFINKMDNGLDTVIGENGVLLSGGQRQRIAIARALLRDSPILILDEATSALDTESERAIQAALDELQKNRTSLVIAHRLSTIEKADEIVVVEDGVIVERGTHNDLLEHRGVYAQLHKMQFGQ |  |  | stoichiometry N [4]: 2 |
